Square brackets hold non-standard residues; d marks the D form. Peptide text beside a SMILES is read from it. * marks the point of attachment. Nle = CCCC[C@H](N)C(=O)O; Cbz = O=C(OCc1ccccc1)*
Tests used:
[1] = tested on: MDA-MB231 breast cancer cells; assay: Cytotoxicity and growth assay in MDA-MB231 breast cancer cells (SRB, TCA-precipitated protein); assay type: cell-based, human
Experimental: An invasive, estrogen-independent breast cancer cell line that spontaneously expresses high levels of Notch-1 and -4, MDA-MB231, and normal human breast cells were used to investigate whether inhibition of Notch activation or expression affects the biological behavior of breast cancer cells. Human Mammary Epithelial Cells (HMEC) were purchased from Clonetics and cultured in mammary epithelial cell basal medium (MEBM) supplemented with 52 μg/ml Bovine Pituitary Extract […], […] human recombinant Epidermal Growth Factor (hEGF), 5 μg/ml insulin, 0.5 μg/ml Hydrocortisone, 50 μg/ml Gentamicin and 50 μg/ml Amphotericin-B. MDA-MB231 (ATCC, Rockville, Md.) were cultured in DMEM medium with 10% FBS. Notch expression in HMEC and MDA-MB231 cells was silenced using highly specific RNAi. Double-stranded synthetic 21-mer RNA oligonucleotides (siRNAs) were purchased from Dharmacon (Lafayette, Colo.). […] Sequence specificity was determined by BLAST searches which determined the uniqueness of the sequences. Transfection of siRNAs was performed using Oligofectamine (Invitrogen) as recommended by the siRNA manufacturer (Dharmacon). Transfection efficiency was optimized and followed on parallel wells using DNA double stranded oligos of identical sequence to the siRNAs, labeled with biotin on one strand. Transfected cells were identified by Streptavidin-horseradish peroxidase staining (Vectastain) and counted. Transfection efficiencies around 80% were routinely obtained.
Cytotoxicity and growth of transfected cells were estimated by a standard assay used for cancer drug screening, through the total amount of TCA-precipitated cell proteins after drug treatment (Likhitwitayawuid, K et al., 1993, J Nat Prod 56:30-38): 200 μl of cell suspension (10^5 cells/ml) were added to each well in a 96-well plate. After incubation at, 37° C., in 5% CO2 (30 minutes to 72 hours depending on the time course chosen), 50 μl 50% trichloroacetic acid was added to each well. After incubation at 4° C. for 1 hour, precipitates were washed with water 4-5 times and air dried overnight. One hundred μl of SRB solution (0.4% sulforhodamine B in 1% acetic acid, filtered before use) was added to each well for 30 minutes. Wells were washed with 1% acetic acid 4-5 times and air dried. Two hundred μl 10 mM Tris base was added to each well. Plates were shaken for 5-10 minutes and OD at 490 nm (OD490) was recorded via ELISA reader. To assay matrix invasion, 300 μl of cell suspension (10^6 cells/mL in serum-free medium) were added to invasion inserts (BioCoat Matrigel Invasion Chambers, Becton Dickinson, Bedford, Mass.) and incubated for 22 hours at 37° C., 5% CO2. […] After removal of the non-invading cells from the interior of the inserts, stained invading cells were lysed in 10% acetic acid and OD595 was determined. […]

melanoma cell lines = assay: Proteasome inhibitors, apoptosis of melanoma cell lines (Annexin V FITC flow cytometry); assay type: cell-based, human
Experimental: The proteasome inhibitors lactacystin, MG-132, and bortezomib were evaluated for the ability to induce apoptosis in malignant melanoma cell lines (n=3) including an early passage line, RJ002L. MG-132 was obtained from Calbiochem (La Jolla, Calif.) and dissolved in DMSO. Lactacystin was purchased from Sigma Chemical Co. (St. Louis, Mo.) and dissolved in PBS. Bortezomib was obtained from a pharmacy as VELCADE (bortezomib) for Injection from a single use vial for intravenous use only (Millennium Pharmaceuticals, Cambridge, Mass.). A cell line with wild-type p53 (RJ002L) and two melanoma cell lines with mutant p53 alleles (C8161 and MUM2B) were included in this study. Two additional melanoma cell lines were also used: cutaneous SK-MeI-28 cells and primary, early passage MG012 cells. In addition, five normal melanocyte culture cell lines (MC-005, MC-006, MC-008, MC-009 and MC-011) were examined. Prior to testing, the melanoma cell lines were maintained in RPMI supplemented with 10% FBS. Normal human melanocytes were isolated from neonatal foreskins as previously described (Qin J et al., 2004, Mol Cancer Ther 3:895-902, 2004) and cultured with medium 154 containing growth supplements (Cascade Biologics, Portland, Oreg.).
To assess the effect of proteasome inhibitors on the cell lines, the cells were grown in suitable culture media as described above. Highly proliferating cells (i.e., cells that had reached approximately 30% confluency) were exposed to the inhibitors as described below. The culture media was replenished with media containing proteasome inhibitors at various concentrations and the cells were incubated for 24 hours prior to harvesting the cells for further analysis.
Following treatment with the proteasome inhibitors, the melanoma and melanocyte cell cultures were assayed for apoptotic cells using the APO TARGET Annexin V FITC staining kit (Biosource, Camarillo, Calif.) according to the manufacturer's instructions followed by flow cytometric analysis using FACScaliber (Becton Dickinson, Palo Alto, Calif.) as described in Qin, J. et al., 2001, Nat Med 7: 385-386. In some cases, cell cycle and apoptosis analysis was measured using propidium iodide staining and flow cytometry as described. Cells with DNA content less than the G0 amount of untreated cells were considered apoptotic. For cell analysis, DNA histograms were analyzed using MultiCycle for Windows (Phoenix Flow Systems, San Diego, Calif.) as described in Denning, M. F. et al., 1998, J Biol Chem 273: 29995-30002.

## 5′-AAGTGTCTGAGGCCAGCAAGA-3′ [Notch-1 siRNA]
[1]; MDA-MB231, siRNA transfection
  proliferation: inhibits proliferation of MDA-MB231 breast cancer cells

## CC(C)C[C@@H](C=O)NC(=O)[C@H](CC(C)C)NC(=O)[C@H](CC(C)C)NC(=O)OCc1ccccc1 [MG-132, benzoxycarbonyl-Leucyl-Leucyl-Leucyl-aldehyde] (Cbz-Leu-Leu-Leu-aldehyde)
Melanoma cell lines; RJ002L, MG012, C8161, MUM2B, SK-MeI-28, 1-10 μM, 24 hrs
  apoptotic response to increasing concentrations: significantly enhanced apoptotic responses

## CC(C)C[C@H](NC(=O)[C@H](Cc1ccccc1)NC(=O)c1cnccn1)B(O)O [bortezomib, N-(2-pyrazine)carbonyl-L-phenylalanine-L-leucine boronic acid]
Melanoma cell lines; all melanoma cell lines examined
  concentration triggering significant apoptotic response (p<0.05): ≥ 0.1 µM
Melanoma cell lines; all melanoma cell lines tested, 10 μM, 24 hrs continuous exposure
  dead cells: 30-70%

## CCCC[C@@H](C=O)NC(=O)[C@H](CC(C)C)NC(=O)[C@H](CC(C)C)NC(=O)OCc1ccccc1 [z-Leu-Leu-Nle-CHO, N-benzyloxycarbonyl-leucyl-leucyl-norleucinal] (Cbz-Leu-Leu-[Nle]-aldehyde)
[1]; Homo sapiens, MDA-MB-231, MDA-MB231 (p53-mutant, ERα-negative), 48 h, read-out: IC50, cell growth inhibition
  IC50: 1300 nM

Reference: patent US20080220416A1, “Compositions for Inhibiting Cell Growth and Inducing Apoptosis in Cancer Cells and Methods of Use Thereof” (THE BOARD OF TRUSTEES OF THE UNIVERSITY OF ILLINOI, priority 2004, published 2008)
